Laboratory results from article PMC4444023 (PLoS ONE, 2015).
Entries after “also recorded” stand apart in the source; their conditions may differ.

How the values were obtained:
SIRT2 = conditions: NAD-dependent deacetylase activity; cited from earlier work
[1] = system: BCL6-expressing Burkitt lymphoma cell lines; design: method as in PMID 16618762; conditions: cited from earlier work
SIRT1 = conditions: NAD-dependent deacetylase activity; cited from earlier work
human nSMase2 = target: T1, human nSMase2 (Homo sapiens, UniProt Q9NY59); experiment: Time dependence study of cambinol inhibitory activity; assay type: biochemical; design: Full length human nSMase2 cDNA with a C-terminal Flag tag; host or cells: HEK293, stably transfected; crude cell lysate used as enzyme; conditions: pre-incubation up to 2 h
T1 sequence (Q9NY59 1-655): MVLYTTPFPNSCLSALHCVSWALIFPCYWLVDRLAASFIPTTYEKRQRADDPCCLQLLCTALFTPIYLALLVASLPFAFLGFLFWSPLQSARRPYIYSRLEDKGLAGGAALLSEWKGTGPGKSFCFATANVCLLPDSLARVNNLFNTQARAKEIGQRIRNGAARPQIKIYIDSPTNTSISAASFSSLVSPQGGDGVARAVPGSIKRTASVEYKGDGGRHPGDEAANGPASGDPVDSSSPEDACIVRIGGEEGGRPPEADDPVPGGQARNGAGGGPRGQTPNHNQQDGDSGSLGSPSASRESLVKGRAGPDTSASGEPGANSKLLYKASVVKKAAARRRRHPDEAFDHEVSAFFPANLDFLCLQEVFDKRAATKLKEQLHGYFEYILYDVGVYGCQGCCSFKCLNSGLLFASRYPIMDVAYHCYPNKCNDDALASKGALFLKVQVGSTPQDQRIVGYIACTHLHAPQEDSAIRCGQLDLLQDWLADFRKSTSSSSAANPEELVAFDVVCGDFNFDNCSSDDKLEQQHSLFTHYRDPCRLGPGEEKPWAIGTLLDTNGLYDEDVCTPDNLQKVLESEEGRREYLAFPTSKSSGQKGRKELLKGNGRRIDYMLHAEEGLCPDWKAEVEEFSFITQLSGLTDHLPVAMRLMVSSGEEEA
Procedure: ^bCambinol IC50 values were determined from 8-points dose response curves run in duplicate.

[2] = system: rat primary hippocampal neurons; experiment: Dendrite length (MAP2 imaging); assay type: cell-based; conditions: for dendrite length, Mean: in µm (unit assumed)
Procedure: Quantification of neuronal morphology was done in primary hippocampal neurons plated in PEI-coated ultra-thin and optically clear flat bottom 96-well plates (Corning). […] Neurons were then fixed with 4% paraformaldehyde, and permeabilized with 0.1% Triton X-100 in phosphate-buffered saline (PBS-T) for 20 min at room temperature. Blocking was done for 1 h with 5% normal goat serum solution, then incubation with anti-MAP2 antibody (1:500, Sigma) was done, followed by three washes with PBS-T and 2 h incubation with Alexa 595 secondary antibody (1:500, Life Technologies). Dendrites were imaged with a 20X objective using a Zeiss Axio Observer Z1 microscope equipped with an Orca ER CCD camera (Hamamatsu Inc). A 6x6 image was obtained from each culture well, and a montage was created using Neurolucida imaging software (mbf Biosecience). The effects of the experimental treatments on dendrite length were determined and the results presented are the average of 5–6 individual experiments. Statistical significance was determined by one-way ANOVA analysis.

Solubility = assay type: physicochemical; conditions: cambinol compared to GW4869
B. cereus nSMase = B. cereus nSMase (Bacillus cereus, UniProt P11889); experiment: Inhibition of bacterial nSMase (not shown); assay type: biochemical
B. cereus nSMase, sequence (P11889 28-333): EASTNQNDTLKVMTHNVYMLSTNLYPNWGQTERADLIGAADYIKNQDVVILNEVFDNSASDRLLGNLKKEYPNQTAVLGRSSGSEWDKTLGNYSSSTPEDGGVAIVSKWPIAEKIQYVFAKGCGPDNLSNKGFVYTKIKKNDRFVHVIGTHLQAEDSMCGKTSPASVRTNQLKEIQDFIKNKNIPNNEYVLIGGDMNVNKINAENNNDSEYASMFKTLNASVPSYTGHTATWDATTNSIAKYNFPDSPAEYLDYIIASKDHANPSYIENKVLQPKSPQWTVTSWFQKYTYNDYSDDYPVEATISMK

[3] = system: rat primary cortical neurons; experiment: Lipid extraction and ceramide measurements (LC-MS/MS); assay type: cell-based; conditions: rat primary neurons, TNF-α
Procedure: Primary cortical neurons were prepared from embryonic day 18 Sprague-Dawley rats following previously described methods. […] A crude lipid extract from cortical neurons was obtained using a modified Bligh and Dyer procedure. Ceramide C12:0 (Avanti Polar Lipids) was included as an internal standard. The organic layers were dried in a nitrogen evaporator (Organomation Associates Inc.) and stored at -80°C. Dried organic layers were resuspended in methanol just prior to analysis. The detection and quantitation of individual ceramide species was performed on a high-performance liquid chromatography (HPLC) coupled electrospray ionization triple quadrupole mass spectrometer (API3000, AB Sciex Inc.) using settings similar to those described in previous studies. Samples were handled by a CTC PAL autosampler (LEAP Technologies Inc.) and injected into an HPLC (PerkinElmer) equipped with a reverse phase C18 column (Phenomex). […] The eluted sample was injected into the electrospray ionization source and detection of each ceramide species was conducted by multiple reaction monitoring. Spectral analysis was conducted using MultiQuant (AB Sciex Inc.), individually validated and normalized to the internal standard. Final data for each ceramide species in counts per second was expressed as the ratio of analyte/internal standard.

[4] = system: rat primary hippocampal neurons; experiment: Hippocampal neuronal survival (Hoechst 33342); assay type: cell-based; conditions: for effect on TNF-α or IL-1β-induced neuron cell death (words): Hoechst 33342 staining
Procedure: All animal procedures were approved by the Johns Hopkins University Animal Care and Use Committee. Primary hippocampal neurons were prepared from day 18 decapitated embryos of Sprague-Dawley rats following previously described methods. Cells were seeded on polyethyleneimine (PEI)-coated slides in 12-well plates and cultured between 14–21 days. […] After 18 h, cells were stained with 50 μg/ml Hoeschst 33342 for 20 min and then fixed with 4% paraformaldehyde for 30 min. The number of living and apoptotic cells was determined by fluorescence microscopy. A minimum of 500 cells were counted per treatment condition. Results were normalized to control untreated cells and were representative of at least two independent experiments conducted in triplicate. Statistical evaluation of the data was done by Student’s t-test.

macrophages = conditions: cited from earlier work
aSMase = target: aSMase; design: method as in earlier work; conditions: ref personal communication with Drs. Marc Ferrer and Wei Zheng, NCATS; cited from earlier work

## O=c1[nH]c(=S)[nH]c(-c2ccccc2)c1Cc1c(O)ccc2ccccc12 [Cambinol, cambinol]
SIRT2
  IC50: 59 µM
[1]
  apoptosis: induced apoptosis
SIRT1
  IC50: 56 µM
Human nSMase2
  time dependence of inhibition: did not change; also recorded: independent of pre-incubation time
[2]; 100 ng/ml TNFα 18 h, 0.1 µM Cambinol
  dendrite length, Mean: 9111.111
[2]; 100 ng/ml TNFα 18 h, 0.3 µM Cambinol
  dendrite length, Mean: 11450
[2]; 100 ng/ml TNFα 18 h, 1 µM Cambinol
  dendrite length, Mean: 13799
[2]; 100 ng/ml TNFα 18 h, 3 µM Cambinol
  dendrite length, Mean: 14262.5
[2]; 100 ng/ml TNFα 18 h, 10 µM Cambinol
  dendrite length, Mean: 18867
[2]; 100 ng/ml TNFα 18 h, 30 µM Cambinol
  dendrite length, Mean: 16000
[2]; No TNFα, 30 µM Cambinol
  dendrite length, Mean: 15151.25
[2]; decrease in dendritic length
  effect on TNFα-induced dendrite damage: prevented; also recorded: protected
Solubility
  aqueous solubility: significantly higher; also recorded: improved
B. cereus nSMase
  IC50: 5 µM
[3]
  effect on cytokine-induced increase of ceramide (words): decreased
[3]; listed as cambinol
  effect on cytokine-induced increase of ceramide (words): dose dependently block; also recorded: blocked
[4]; 100 ng/ml IL1β 18 h, 0.1 µM compound
  neuron survival, Mean (normalized to control untreated cells): 77.25
[4]; 100 ng/ml IL1β 18 h, 0.3 µM compound
  neuron survival, Mean (normalized to control untreated cells): 74.03
[4]; 100 ng/ml IL1β 18 h, 1 µM compound
  neuron survival, Mean (normalized to control untreated cells): 84.51
[4]; 100 ng/ml IL1β 18 h, 3 µM compound
  neuron survival, Mean (normalized to control untreated cells): 93.01
[4]; 100 ng/ml IL1β 18 h, 10 µM compound
  neuron survival, Mean (normalized to control untreated cells): 93.58
[4]; 100 ng/ml IL1β 18 h, 25 µM compound
  neuron survival, Mean (normalized to control untreated cells): 97.12
[4]; 100 ng/ml TNFα 18 h, 0.1 µM compound
  neuron survival, Mean (normalized to control untreated cells): 78.25
[4]; 100 ng/ml TNFα 18 h, 0.3 µM compound
  neuron survival, Mean (normalized to control untreated cells): 82.52
[4]; 100 ng/ml TNFα 18 h, 1 µM compound
  neuron survival, Mean (normalized to control untreated cells): 86.26
[4]; 100 ng/ml TNFα 18 h, 3 µM compound
  neuron survival, Mean (normalized to control untreated cells): 90.17
[4]; 100 ng/ml TNFα 18 h, 10 µM compound
  neuron survival, Mean (normalized to control untreated cells): 91.48
[4]; 100 ng/ml TNFα 18 h, 25 µM compound
  neuron survival, Mean (normalized to control untreated cells): 92.36
[4]
  effect on TNF-α or IL-1β-induced neuron cell death (words): decreased
[4]; listed as cambinol
  effect on TNF-α or IL-1β-induced neuron cell death (words): prevent; also recorded: inhibited; also recorded: protected
[4]; No IL1β, 25 µM compound
  neuron survival, Mean (normalized to control untreated cells): 91.21
macrophages
  TNF-α and IL-6 release: effectively inhibited
aSMase
  IC50: > 10 µM
